Measurements published in patent US12234230B2, “Substituted benzyl-triazole compounds for Cbl-b inhibition, and further uses thereof” (Nurix Therapeutics, Inc., priority 2019, dated 2025).
Read-outs that look alike come from different tables or passages of the source.

How the values were obtained:
[1] = tested on: primary human total T-cells; experiment: Primary human total T-cell activation (IL-2 secretion, CD25 surface staining), Biological Example 2; conditions: fold change over baseline; for CD25 staining CD3/CD28 0.3 μM / IL-2 secretion CD3/CD28 0.3 μM: 0.3 μM inhibitor; for CD25 staining CD3/CD28 0.3 μM / IL-2 secretion CD3/CD28 0.3 μM / CD25 staining CD3/CD28 1 μM / IL-2 secretion CD3/CD28 1 μM: anti-CD3 and anti-CD28 co-stimulation; for CD25 staining CD3/CD28 1 μM / IL-2 secretion CD3/CD28 1 μM / CD25 staining CD3 1 μM / IL-2 secretion CD3 1 μM: 1 μM inhibitor; for CD25 staining CD3 1 μM / IL-2 secretion CD3 1 μM / CD25 staining CD3 3 μM / IL-2 secretion CD3 3 μM: anti-CD3 stimulation alone; for CD25 staining CD3 3 μM / IL-2 secretion CD3 3 μM: 3 μM inhibitor
Method: Peripheral blood mononuclear cells (PBMC) were obtained either: 1) by using Ficoll-Paque™ (GE Healthcare) for separation of peripheral blood hematopoietic cells from buffy coats of healthy human donors; or 2) directly from LeukoPak donations. […] The cells were rested overnight at 37° C. 5% CO2. The Cbl-inhibitor was added to 1×10^5 cells per well and the plate was incubated for one hour at 37° C. in 5% CO2 at the concentrations indicated (Table 3) with a final DMSO concentration of <0.1%. For samples stimulated with anti-CD3 antibody and anti-CD28 antibody (anti-CD3/anti-CD28), the Cbl-b inhibitor concentrations tested were 1 μM, and 0.3 μM. For samples stimulated with anti-CD3 antibody alone (anti-CD3), the Cbl-b inhibitor concentrations tested were 3 μM, and 1 μM. […] To prepare plates with plate bound anti-CD3 antibody (OKT3), 96-well round bottom tissue culture plates were coated with 100 μL of anti-CD3 antibody (OKT3) at 10 μg/mL for 4 hours at 37° C. 5% CO2 in phosphate buffered saline (PBS). […] Cells were stimulated for 48 hours prior to harvesting the cell free supernatant and staining the cell population for surface marker assessment by flow cytometry. Supernatants were analyzed for cytokine secretion, including IL-2 by ELISA (R&D Systems, Peprotech or Life Technologies) or Luminex multiplex kits (Procarta Life Technologies) following the manufacturer's protocol. Cells were stained with anti-CD25 antibody (BD Biosciences) to assess levels of surface marker of activation.
Readouts were reported as fold change over baseline. Baseline for this study was the measurement obtained from total human T-cells stimulated with anti-CD3 antibody and with soluble anti-CD28 antibody, wherein the cells were not incubated with a Cbl-b inhibitor (Table 3).

Cbl-b = Cbl-b (Homo sapiens (Human), UniProt Q13191); experiment: Cbl-b displacement assay (Cbl-b inhibition assay), Biological Example 1; format: binding
Method: The ability of candidate compounds to displace a known inhibitor and thereby inhibit Cbl-b activity was measured by monitoring the interaction of Cbl-b with a fluorophore-labeled probe in the presence of the candidate compound.
Following the one hour incubation, the plates were read for TR-FRET signal at 520/620 nm using an Envision plate reader (Perkin Elmer).

[2] = 0.125 nM Cbl-b final concentration (Low), read-out: Cbl-b activity IC50 (Low)

Sequence of Cbl-b (Q13191 36-427): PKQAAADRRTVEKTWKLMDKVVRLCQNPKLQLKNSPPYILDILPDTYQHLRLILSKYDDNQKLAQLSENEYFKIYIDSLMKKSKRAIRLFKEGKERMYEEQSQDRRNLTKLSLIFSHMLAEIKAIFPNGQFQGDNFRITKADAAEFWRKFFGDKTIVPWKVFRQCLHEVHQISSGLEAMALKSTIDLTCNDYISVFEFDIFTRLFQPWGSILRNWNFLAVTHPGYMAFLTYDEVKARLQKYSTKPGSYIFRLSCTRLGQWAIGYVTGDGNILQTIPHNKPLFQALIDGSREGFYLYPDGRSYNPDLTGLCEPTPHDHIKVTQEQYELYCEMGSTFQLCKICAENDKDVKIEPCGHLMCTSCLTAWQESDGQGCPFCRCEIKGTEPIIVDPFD

Question: With C[C@@H]1CN(Cc2cc3c(c(C(F)(F)F)c2)CN(c2cccc(C4(c5nncn5C)CC5(CC5)C4)c2)C3=O)CCO1 [Compound 43, (R)-2-(3-(5-(4-methyl-4H-1,2,4-triazol-3-yl)spiro[2.3]hexan-5-yl)phenyl)-6-((2-methylmorpholino)methyl)-4-(trifluoromethyl)isoindolin-1-one] as the compound, how does the “CD25 staining CD3/CD28 0.3 μM” value [1] read?
Answer: B (B indicates 1.24-1.39 fold)

Question: And the “IL-2 secretion CD3/CD28 0.3 μM” value [1]?
Answer: B (B indicates 20-35 fold)

Question: And the “CD25 staining CD3/CD28 1 μM” value [1]?
Answer: B (B indicates 1.24-1.39 fold)

Question: What about the “IL-2 secretion CD3/CD28 1 μM” value [1] of the same compound?
Answer: A (A indicates >35 fold)

Question: And the “CD25 staining CD3 1 μM” value [1]?
Answer: A (A indicates >2.5 fold)

Question: What about the “IL-2 secretion CD3 1 μM” value [1] of the same compound?
Answer: A (A indicates >1.1 fold)

Question: And the “CD25 staining CD3 3 μM” value [1]?
Answer: A (A indicates >2.5 fold)

Question: What about the “IL-2 secretion CD3 3 μM” value [1] of the same compound?
Answer: A (A indicates >1.1 fold)

Question: And the IC50 (Cbl-b; [2])?
Answer: < 5 nM

Question: Which “IL-2 secretion CD3/CD28 0.3 μM” value [1] does the source give for Cn1cnnc1C1(c2cccc(N3Cc4c(cc(CN5CCC[C@H](C(F)(F)F)C5)cc4C(F)(F)F)C3=O)c2)CC2(CC2)C1 [Compound 44, (S)-2-(3-(5-(4-methyl-4H-1,2,4-triazol-3-yl)spiro[2.3]hexan-5-yl)phenyl)-4-(trifluoromethyl)-6-((3-(trifluoromethyl)piperidin-1-yl)methyl)isoindolin-1-one] here?
Answer: B (B indicates 20-35 fold)

Question: And the “IL-2 secretion CD3/CD28 1 μM” value [1]?
Answer: A (A indicates >35 fold)

Question: And the “CD25 staining CD3 1 μM” value [1]?
Answer: A (A indicates >2.5 fold)

Question: And the “IL-2 secretion CD3 1 μM” value [1]?
Answer: A (A indicates >1.1 fold)

Question: And the “CD25 staining CD3 3 μM” value [1]?
Answer: A (A indicates >2.5 fold)

Question: What about the “IL-2 secretion CD3 3 μM” value [1] of the same compound?
Answer: A (A indicates >1.1 fold)

Question: And the IC50 (Cbl-b; [2])?
Answer: < 5 nM

Question: Which results are given for C[C@@H]1CN(Cc2cc3c(c(C(F)(F)F)c2)CN(c2cccc(C4(c5nncn5C)COC4)c2)C3=O)CCC1(F)F [Compound 47, 6-[[(3R)-4,4-difluoro-3-methyl-1-piperidyl]methyl]-2-[3-[3-(4-methyl-1,2,4-triazol-3-yl)oxetan-3-yl]phenyl]-4-(trifluoromethyl)isoindolin-1-one]?
Answer: IL-2 secretion CD3/CD28 0.3 μM [1]: A (A indicates >35 fold); IL-2 secretion CD3/CD28 1 μM [1]: A (A indicates >35 fold); CD25 staining CD3 1 μM [1]: B (B indicates 1.5-2.5 fold); IL-2 secretion CD3 1 μM [1]: B (B indicates 0.70-1.1 fold); CD25 staining CD3 3 μM [1]: B (B indicates 1.5-2.5 fold); IL-2 secretion CD3 3 μM [1]: C (C indicates <0.70 fold); IC50 (Cbl-b; [2]): < 5 nM

Question: With C[C@@H]1CN(Cc2cc3c(c(C(F)(F)F)c2)CN(c2cccc([C@]4(c5nncn5C)C[C@H](C#N)C4)c2)C3=O)CCC1(F)F [Compound 40, (1R,3r)-3-(3-(6-(((R)-4,4-difluoro-3-methylpiperidin-1-yl)methyl)-1-oxo-4-(trifluoromethyl)isoindolin-2-yl)phenyl)-3-(4-methyl-4H-1,2,4-triazol-3-yl)cyclobutane-1-carbonitrile] as the compound, how does the “IL-2 secretion CD3/CD28 0.3 μM” value [1] read?
Answer: B (B indicates 20-35 fold)

Question: And the “IL-2 secretion CD3/CD28 1 μM” value [1]?
Answer: A (A indicates >35 fold)

Question: What about the “CD25 staining CD3 1 μM” value [1] of the same compound?
Answer: A (A indicates >2.5 fold)

Question: And the “IL-2 secretion CD3 1 μM” value [1]?
Answer: B (B indicates 0.70-1.1 fold)

Question: What about the “CD25 staining CD3 3 μM” value [1] of the same compound?
Answer: A (A indicates >2.5 fold)

Question: What about the “IL-2 secretion CD3 3 μM” value [1] of the same compound?
Answer: B (B indicates 0.70-1.1 fold)

Question: What about the IC50 (Cbl-b; [2]) of the same compound?
Answer: < 5 nM

Question: What does the source list for C[C@@H]1CN(Cc2cc3c(c(C(F)(F)F)c2)CN(c2cccc([C@]4(c5nncn5C)C[C@H](O)C4)c2)C3=O)CCC1(F)F [Compound 34, 6-(((R)-4,4-difluoro-3-methylpiperidin-1-yl)methyl)-2-(3-(trans-3-hydroxy-1-(4-methyl-4H-1,2,4-triazol-3-yl)cyclobutyl)phenyl)-4-(trifluoromethyl)isoindolin-1-one]?
Answer: CD25 staining CD3/CD28 0.3 μM [1]: B (B indicates 1.24-1.39 fold); IL-2 secretion CD3/CD28 0.3 μM [1]: C (C indicates <20 fold); CD25 staining CD3/CD28 1 μM [1]: B (B indicates 1.24-1.39 fold); IL-2 secretion CD3/CD28 1 μM [1]: A (A indicates >35 fold); CD25 staining CD3 1 μM [1]: B (B indicates 1.5-2.5 fold); IL-2 secretion CD3 1 μM [1]: A (A indicates >1.1 fold); CD25 staining CD3 3 μM [1]: B (B indicates 1.5-2.5 fold); IL-2 secretion CD3 3 μM [1]: A (A indicates >1.1 fold); IC50 (Cbl-b; [2]): 5 to 20 nM

Question: With C[C@@H]1CN(Cc2cc3c(c(C(F)(F)F)c2)CN(c2cccc([C@]4(c5nncn5C)C[C@@H](C)C4)c2)C3=O)CCO1 [Compound 24, 2-(3-((1s,3S)-3-methyl-1-(4-methyl-4H-1,2,4-triazol-3-yl)cyclobutyl)phenyl)-6-(((R)-2-methylmorpholino)methyl)-4-(trifluoromethyl)isoindolin-1-one] as the compound, how does the “IL-2 secretion CD3/CD28 0.3 μM” value [1] read?
Answer: C (C indicates <20 fold)

Question: What about the “IL-2 secretion CD3/CD28 1 μM” value [1] of the same compound?
Answer: C (C indicates <20 fold)

Question: And the “CD25 staining CD3 1 μM” value [1]?
Answer: C (C indicates <1.5 fold)

Question: What about the “IL-2 secretion CD3 1 μM” value [1] of the same compound?
Answer: C (C indicates <0.70 fold)

Question: And the “CD25 staining CD3 3 μM” value [1]?
Answer: C (C indicates <1.5 fold)

Question: And the “IL-2 secretion CD3 3 μM” value [1]?
Answer: C (C indicates <0.70 fold)

Question: And the IC50 (Cbl-b; [2])?
Answer: 20 to 100 nM

Question: For CO[C@H]1C[C@](c2cccc(N3Cc4c(cc(CN5CCC[C@H](C)C5)cc4C(F)(F)F)C3=O)c2)(c2nncn2C)C1 [Compound 37, 2-(3-((1r,3S)-3-methoxy-1-(4-methyl-4H-1,2,4-triazol-3-yl)cyclobutyl)phenyl)-6-(((S)-3-methylpiperidin-1-yl)methyl)-4-(trifluoromethyl)isoindolin-1-one], which “CD25 staining CD3/CD28 0.3 μM” value [1] is on record?
Answer: B (B indicates 1.24-1.39 fold)

Question: And the “IL-2 secretion CD3/CD28 0.3 μM” value [1]?
Answer: B (B indicates 20-35 fold)

Question: What about the “IL-2 secretion CD3/CD28 1 μM” value [1] of the same compound?
Answer: B (B indicates 20-35 fold)

Question: And the “CD25 staining CD3 1 μM” value [1]?
Answer: A (A indicates >2.5 fold)

Question: And the “IL-2 secretion CD3 1 μM” value [1]?
Answer: A (A indicates >1.1 fold)

Question: And the “CD25 staining CD3 3 μM” value [1]?
Answer: A (A indicates >2.5 fold)

Question: And the “IL-2 secretion CD3 3 μM” value [1]?
Answer: B (B indicates 0.70-1.1 fold)

Question: What about the IC50 (Cbl-b; [2]) of the same compound?
Answer: < 5 nM

Question: What does the source list for CC(c1cc2c(c(C(F)(F)F)c1)CN(c1cccc([C@@H](c3nncn3C)C3CCC3)c1)C2=O)N1CCC[C@H](C)C1 (stereo partly drawn) [Compound 16, 2-(3-((S)-cyclobutyl(4-methyl-4H-1,2,4-triazol-3-yl)methyl)phenyl)-6-(1-((S)-3-methylpiperidin-1-yl)ethyl)-4-(trifluoromethyl)isoindolin-1-one]?
Answer: IL-2 secretion CD3/CD28 0.3 μM [1]: C (C indicates <20 fold); IL-2 secretion CD3/CD28 1 μM [1]: B (B indicates 20-35 fold); CD25 staining CD3 1 μM [1]: A (A indicates >2.5 fold); IL-2 secretion CD3 1 μM [1]: B (B indicates 0.70-1.1 fold); CD25 staining CD3 3 μM [1]: A (A indicates >2.5 fold); IL-2 secretion CD3 3 μM [1]: B (B indicates 0.70-1.1 fold); IC50 (Cbl-b; [2]): 20 to 100 nM; IC50 (Cbl-b; read-out: IC50 values in the Cbl-b inhibition assay of Biological Example 1): 20 to 100 nM

Question: Which “CD25 staining CD3/CD28 0.3 μM” value [1] does the source give for C[C@@H]1CN(Cc2cc3c(c(C(F)(F)F)c2)CN(c2cccc([C@]4(c5nncn5C)C[C@H](CC#N)C4)c2)C3=O)CCC1(F)F [Compound 51, 2-((1R,3r)-3-(3-(6-(((R)-4,4-difluoro-3-methylpiperidin-1-yl)methyl)-1-oxo-4-(trifluoromethyl)isoindolin-2-yl)phenyl)-3-(4-methyl-4H-1,2,4-triazol-3-yl)cyclobutyl)acetonitrile] here?
Answer: B (B indicates 1.24-1.39 fold)

Question: What about the “IL-2 secretion CD3/CD28 0.3 μM” value [1] of the same compound?
Answer: A (A indicates >35 fold)

Question: And the “CD25 staining CD3/CD28 1 μM” value [1]?
Answer: B (B indicates 1.24-1.39 fold)

Question: And the “IL-2 secretion CD3/CD28 1 μM” value [1]?
Answer: A (A indicates >35 fold)

Question: And the “CD25 staining CD3 1 μM” value [1]?
Answer: A (A indicates >2.5 fold)

Question: And the “IL-2 secretion CD3 1 μM” value [1]?
Answer: A (A indicates >1.1 fold)

Question: What about the “CD25 staining CD3 3 μM” value [1] of the same compound?
Answer: A (A indicates >2.5 fold)

Question: And the “IL-2 secretion CD3 3 μM” value [1]?
Answer: A (A indicates >1.1 fold)

Question: And the IC50 (Cbl-b; [2])?
Answer: < 5 nM
